Source: patent US10456439B2, “NK3 agonist for use in the treatment of a patient suffering from atrial arrhythmia or fibrillation” (priority 2014, dated 2019)
Entries after “also recorded” stand apart in the source; their conditions may differ. Where a SMILES comes first, the peptide text is derived from it.

Key:
NK-3 receptor [1] = target: T1, NK-3 receptor (Homo sapiens, UniProt P29371); conditions: cited from earlier work
T1 sequence (P29371 1-465): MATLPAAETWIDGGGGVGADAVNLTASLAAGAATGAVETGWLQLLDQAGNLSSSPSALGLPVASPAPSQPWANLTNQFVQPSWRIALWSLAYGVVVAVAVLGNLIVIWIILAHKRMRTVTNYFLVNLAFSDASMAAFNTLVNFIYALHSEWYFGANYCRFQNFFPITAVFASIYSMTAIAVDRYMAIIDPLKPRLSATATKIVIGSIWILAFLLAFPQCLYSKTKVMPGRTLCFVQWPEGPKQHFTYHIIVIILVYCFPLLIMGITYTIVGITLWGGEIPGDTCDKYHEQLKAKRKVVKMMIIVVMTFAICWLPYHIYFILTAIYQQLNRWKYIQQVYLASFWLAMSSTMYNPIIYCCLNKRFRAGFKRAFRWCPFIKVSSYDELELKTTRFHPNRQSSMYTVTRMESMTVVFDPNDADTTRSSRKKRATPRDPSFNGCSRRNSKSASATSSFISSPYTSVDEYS

NK-1 receptor = NK-1 receptor (Homo sapiens, UniProt P25103); conditions: cited from earlier work
Sequence of NK-1 receptor (P25103 whole entry, species assumed): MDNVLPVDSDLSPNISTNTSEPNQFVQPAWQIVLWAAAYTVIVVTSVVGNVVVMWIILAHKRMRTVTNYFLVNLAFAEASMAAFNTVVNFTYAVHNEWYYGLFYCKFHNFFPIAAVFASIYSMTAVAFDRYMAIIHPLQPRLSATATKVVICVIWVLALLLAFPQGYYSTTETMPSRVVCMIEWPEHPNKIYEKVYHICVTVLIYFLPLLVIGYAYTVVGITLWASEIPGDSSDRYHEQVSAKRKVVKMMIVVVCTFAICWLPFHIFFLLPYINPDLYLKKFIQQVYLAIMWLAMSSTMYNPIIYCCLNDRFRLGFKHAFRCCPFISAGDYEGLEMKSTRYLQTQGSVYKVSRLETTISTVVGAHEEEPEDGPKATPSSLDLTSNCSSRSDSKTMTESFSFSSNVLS

[2] = test system: rabbit ventricular myocytes; test: Action potential recording (perforated patch clamp) in rabbit ventricular myocytes; conditions: 2 Hz, 1-10 μM substance P or 100 nM Senktide
Procedure: (§2) Male New Zealand White specified pathogen free rabbits (2.5-3.5 kg) were anaesthetized with a combination of 20 mg xylazine and 100 mg ketamine (intramuscularly) and heparinized with a bolus of 1000 IU heparin (intravenously). Subsequently, the animals were killed by 200 mg pentobarbital intravenously, after which the heart was quickly excised and mounted on a langendorff perfusion apparatus. […] Single atrial cells were isolated from the left atrium using the same protocol with a modification consisting of complementing the enzymatic solution with 6.6 pg/mL protease.
(§3) Small aliquots of single cell suspension were introduced into a recording chamber on the stage of an inverted microscope. Cells were allowed to adhere for 5 minutes after which superfusion was started. Single quiescent rod-shaped myocytes with clear cross-striations and smooth surfaces were selected for measurements.
(§4) Voltage control, data acquisition, and analysis were performed using custom-made software.
(§5) Potentials were corrected for liquid junction potential [3]. Signals were low-pass filtered (cut-off frequency: 5 kHz) and digitized at 40 kHz. Cell membrane capacitance (Cm) was estimated by dividing the decay time constant of the capacitive transient in response to 5 mV hyperpolarizing voltage clamp steps from a holding potential of −40 mV, by the series resistance.
(§6) APs were measured with the amphotericin-B-perforated patch clamp technique using normal Tyrode's solution containing (in mM): NaCl 140, KCl 5.4, CaCl2 1.8, MgCl2 1.0, glucose 5.5, HEPES 5.0, pH 7.4 (NaOH). The patch-pipettes (borosilicate glass; 1-3 MΩ) were filled with a ‘standard’ solution containing (in mM): K-gluconate 110, KCl 30, NaCl 5, MgCl2 1, amphotericin-B 0.22, HEPES 10, pH 7.3 (KOH).
(§7) APs were elicited at 2 Hz by 2-ms (1.5×diastolic stimulation threshold) current pulses applied through the patch pipette. […] Values obtained from 10 consecutive APs were averaged.
(§8) The NK-agonists were applied in a cumulative sequence with 5 minutes intervals between increments in concentration. Effects were assessed after equilibration, but not earlier than 3 minutes after application.

[3] = test system: ventricle of Langendorff-perfused rabbit heart; test: Ventricular effective refractory period in Langendorff-perfused rabbit hearts; conditions: 20-50 nM Senktide
Procedure: (§1) After the heart was excised, it was cannulated, quickly mounted on a Langendorff perfusion set-up, and perfused at 37° C. with a solution containing (in mmol/L) 128 NaCl, 4.7 KCl, 1.45 CaCl2), 0.6 MgCl2, 27 NaHCO3, 0.4 NaH2PO4, and 11 glucose (pH maintained at 7.4 by equilibration with a mixture of 95% 02 and 5% CO2). The left atrium (ventricle) was stimulated at a basic cycle length of 200 ms, and twice the diastolic stimulus current threshold. […] The effective refractory period was defined as the longest S1-S2 interval failing to produce atrial (ventricular) activation.

[4] = test system: left atrium of anesthetized rabbit; test: In vivo left atrial effective refractory period in the anesthetised rabbit; conditions: single bolus 11 nmol/kg, basic cycle length 220 ms, control 110 ms
Procedure: Male New Zealand White rabbits were anesthetized with ketamine 50 mg/kg and xylazine 8 mg/kg (and additionally 0.09 mg/kg Temgesic for pain relief) subcutaneously, intubated, and artificially ventilated. Anesthesia was maintained by isoflurane (0.8-1.2%). Catheters for drug infusions and blood pressure recording were inserted into marginal ear veins/arteries. Following thoracotomy, the pericardium was opened to expose the heart. A stimulation- and recording-electrode were placed on the left atrium for epicardial electrophysiological study. The left atrium was stimulated at a basic cycle length of 220 ms, and twice the diastolic stimulus current threshold. […] The effective refractory period was defined as the longest S1-S2 interval failing to produce atrial activation. Approximately 30 minutes after the completion of the preparation when the rabbit was hemodynamically and electrophysiologically stable, control measurements were undertaken.

rabbit atrial myocytes = test: Action potential recording (perforated patch clamp) in rabbit atrial myocytes; conditions: increasing concentrations, result in words
Procedure: as §2, §3, §4, §5, §6, §7, §8

[5] = test system: human left atrial appendage (LAA); test: Effective refractory period in human left atrial appendages; conditions: basic cycle length 600 ms
Excerpt: Left atrial appendages (LAA) were routinely removed from patients with atrial fibrillation receiving PVI (pulmonary vein isolation) ablation. The LAAs were removed using an endoscopic stapling device (Endo Gia stapler, Tyco Healthcare Group). The tissue samples were transported in 100-mL cooled superfusion fluid (Na^+, 155.5 mmol/L; K^+, 4.7 mmol/L; Ca^2+, 1.45 mmol/L; Mg^2+, 0.6 mmol/L; Cl^−, 136.6 mmol/L; HCO3^−, 27 mmol/L; PO4^3−, 0.4 mmol/L; glucose, 11.1 mmol/L; and heparin, 1000 IE) and submerged in a tissue bath. The superfusion fluid was kept at a stable temperature of 36.5° C. to 37.5° C. and oxygenized with a mixture of 95% O2 and 5% CO2 to maintain a pH of 7.4. LAAs were stimulated at 100 beats per minute at 2-3 times diastolic threshold with a pulse width of 2 ms using an epicardial electrode.
The effective refractory period was defined as the longest S1-S2 interval failing to produce atrial (ventricular) activation.

[6] = test system: left atrium of Langendorff-perfused rabbit heart; test: Left atrial effective refractory period in Langendorff-perfused rabbit hearts; conditions: for Longest S1-S2 interval that fails to produce atrial activation (A-ERP): basic cycle length 200 ms; for Effect on atrial effective refractory period, in words / Prolongation of the S1-S2 interval measured in the left atrium: Langendorff-perfused rabbit heart; for Prolongation of the S1-S2 interval measured in the left atrium: difference to control
Procedure: as §1

Murine NK3 receptor [7] = target: T2, Murine NK3 receptor (Mus musculus, UniProt P47937); conditions: read-out: Binding (Inhibition of [125I]-[MePhe7]neurokinin B) Murine NK3 receptor, Ki; HEK 293-murine NK3 receptor cells; mean ± SEM; cited from earlier work
T2 construct: expressed in transfected cells; host or cells: HEK 293
T2 sequence (P47937 1-452): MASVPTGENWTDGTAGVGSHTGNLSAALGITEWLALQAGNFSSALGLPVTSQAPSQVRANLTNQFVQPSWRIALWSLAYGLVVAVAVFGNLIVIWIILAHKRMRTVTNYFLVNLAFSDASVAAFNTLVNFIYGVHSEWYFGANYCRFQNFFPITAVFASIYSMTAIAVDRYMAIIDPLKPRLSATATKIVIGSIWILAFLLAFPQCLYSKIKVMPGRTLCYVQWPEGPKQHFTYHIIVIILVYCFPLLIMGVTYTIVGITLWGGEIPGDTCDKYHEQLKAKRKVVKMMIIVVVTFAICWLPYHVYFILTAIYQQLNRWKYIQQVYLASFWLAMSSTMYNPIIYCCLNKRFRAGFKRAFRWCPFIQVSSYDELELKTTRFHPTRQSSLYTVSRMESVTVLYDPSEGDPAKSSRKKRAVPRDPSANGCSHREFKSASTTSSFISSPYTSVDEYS

Murine NK3 receptor [8] = target: T2, Murine NK3 receptor; conditions: HEK 293-murine NK3 receptor cells; mean ± SEM; read-out: Ca2+ Mobilization Murine NK3 receptor, EC50; cited from earlier work
NK-3 receptor [9] = target: T1, NK-3 receptor; set-up: expressed in transfected cells; host or cells: HEK 293; conditions: read-out: Binding (Inhibition of [125I]-[MePhe7]neurokinin B) Human NK3 receptor, HEK 293-human NK3 receptor cells, mean ± SEM; cited from earlier work
NK-3 receptor [10] = target: T1, NK-3 receptor; conditions: cited from earlier work; remark: listed apart in the source
NK-3 receptor [11] = target: T1, NK-3 receptor; set-up: expressed in transfected cells; host or cells: HEK 293; conditions: HEK 293-human NK3 receptor cells, mean ± SEM, read-out: Ca2+ Mobilization Human NK3 receptor; cited from earlier work
NK2-receptor = target: T3, NK2-receptor (Homo sapiens, UniProt P21452); conditions: cited from earlier work
T3 sequence (P21452 1-398): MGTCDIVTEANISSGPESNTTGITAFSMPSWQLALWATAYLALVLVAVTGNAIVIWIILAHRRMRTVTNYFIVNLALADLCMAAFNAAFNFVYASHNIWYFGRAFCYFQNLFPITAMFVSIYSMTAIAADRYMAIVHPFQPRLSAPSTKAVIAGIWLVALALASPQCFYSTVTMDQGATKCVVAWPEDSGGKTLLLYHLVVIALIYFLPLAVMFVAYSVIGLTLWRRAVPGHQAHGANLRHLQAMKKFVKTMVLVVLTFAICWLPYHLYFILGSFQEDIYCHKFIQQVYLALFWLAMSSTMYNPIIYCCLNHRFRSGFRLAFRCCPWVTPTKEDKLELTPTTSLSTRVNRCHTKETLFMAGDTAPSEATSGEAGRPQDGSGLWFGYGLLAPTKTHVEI

CC[C@H](C)[C@H](NC(=O)[C@H](Cc1ccccc1)NC(=O)[C@H](C)NC(=O)[C@H](CC(=O)O)NC(=O)[C@H](CCCCN)NC(=O)[C@H](CO)NC(=O)[C@@H]1CCCN1C(=O)[C@@H]1CCC(=O)N1)C(=O)NCC(=O)N[C@@H](CC(C)C)C(=O)N[C@@H](CCSC)C(N)=O [Eledoisin] (HELM PEPTIDE1{[Glp].P.S.K.D.A.F.I.G.L.M.[am]}$$$$V2.0)
NK-3 receptor Affinity (pIC50) (NK-3 receptor [1]): 6.2-6.6 pIC50
NK-1 receptor Affinity (pIC50) (NK-1 receptor): 8.6 pIC50

CSCC[C@H](NC(=O)[C@H](CC(C)C)NC(=O)CNC(=O)[C@@H](NC(=O)[C@H](Cc1ccccc1)NC(=O)[C@H](CCC(N)=O)NC(=O)[C@H](CC(=O)O)NC(=O)[C@H](CO)NC(=O)[C@H](CCCCN)NC(=O)[C@@H]1CCCN1C(=O)[C@@H](NC(=O)[C@@H](N)CC(=O)O)C(C)C)C(C)C)C(N)=O [Kassinin] (H-DVPKSDQFVGLM-NH2)
NK-3 receptor Affinity (pIC50) (NK-3 receptor [1]): 6.7-7.0 pIC50
NK-1 receptor Affinity (pIC50) (NK-1 receptor): 6.6-7.1 pIC50

CSCC[C@H](NC(=O)[C@H](CC(C)C)NC(=O)CNC(=O)[C@H](Cc1ccccc1)N(C)C(=O)[C@H](Cc1ccccc1)NC(=O)[C@H](CC(=O)O)NC(=O)CCC(=O)O)C(N)=O [Senktide, N-(3-carboxy-1-oxopropyl)-L-α-aspartyl-L-phenylalanyl-N-methyl-L-phenylalanylglycyl-L-leucyl-L-methioninamide] (HELM PEPTIDE1{[O=C(O)CCC(=O)[*:2]].D.F.[meF].G.L.M.[am]}$$$$V2.0)
Effect on ventricular action potential (AP) duration [2]: absence of effect; also recorded: does not prolong the AP
Effect on ventricular effective refractory period (V-ERP) [3]: not affected
Longest S1-S2 interval that fails to produce atrial activation (A-ERP) in vivo [4]: 160 ms
Effect on atrial action potential (AP) duration (rabbit atrial myocytes): significantly prolongs the AP duration
Longest S1-S2 interval that fails to produce atrial activation (ERP) in human LAA ([5]; 50 nM Senktide, control 290 ms): 440 ms
Effective refractory period in human LAA after wash out ([5]; wash out after 50 nM Senktide): 320 ms
Longest S1-S2 interval that fails to produce atrial activation (A-ERP) ([6]; 750 nM Senktide, control 80 ms): 100 ms
Effect on atrial effective refractory period, in words [6]: prolongs the atrial refractory period
Prolongation of the S1-S2 interval measured in the left atrium [6]: 20 ms
Ki (Murine NK3 receptor [7]): 11.9 ± 2.1 nM
EC50 (Murine NK3 receptor [8]): 0.15 ± 0.09 nM

Asp-Met-His-Asp-Phe-Phe-(Me)Phe-Gly-Leu-Met-NH2 (DMHDFFFGLM; HELM PEPTIDE1{D.M.H.D.F.F.[meF].G.L.M.[am]}$$$$V2.0; N-terminus assumed; SMILES CSCC[C@H](NC(=O)[C@H](CC(C)C)NC(=O)CNC(=O)[C@H](Cc1ccccc1)N(C)C(=O)[C@H](Cc1ccccc1)NC(=O)[C@H](Cc1ccccc1)NC(=O)[C@H](CC(=O)O)NC(=O)[C@H](Cc1c[nH]cn1)NC(=O)[C@H](CCSC)NC(=O)[C@@H](N)CC(=O)O)C(N)=O; listed as Homo sapiens) [[MePhe^7]neurokinin B]
Ki (NK-3 receptor [9]): 1.8 ± 1 nM
NK-3 receptor Affinity (pEC50) (NK-3 receptor [10]): 8.9 pEC50
NK-3 receptor Affinity (pK1) (NK-3 receptor [1]): 8.7-9.6 pK1
Longest S1-S2 interval that fails to produce atrial activation (A-ERP) ([6]; 20 nM (N-Me-Phe7)-NKB, control 75 ms): 105 ms
Effect on atrial effective refractory period, in words [6]: prolongs the atrial effective refractory period
Prolongation of the S1-S2 interval measured in the left atrium [6]: 30 ms
Ki (Murine NK3 receptor [7]): 0.6 ± 0.1 nM
EC50 (NK-3 receptor [11]): 0.3 ± 0.1 nM
EC50 (Murine NK3 receptor [8]): 0.26 ± 0.13 nM

Neurokinin A: compound having CAS registry No. 86933-74-6
Ki (NK-3 receptor [9]): 3300 ± 240 nM
NK-3 receptor Affinity (pEC50) (NK-3 receptor [10]): 7.4 pEC50
NK-3 receptor Affinity (pK1) (NK-3 receptor [1]): 5.5-6.3 pK1
Ki (Murine NK3 receptor [7]): 785 ± 195 nM
EC50 (NK-3 receptor [11]): 22 ± 4 nM
EC50 (Murine NK3 receptor [8]): 0.82 ± 0.24 nM

Neurokinin B: natural NK3-receptor agonist, CAS registry No. 86933-75-7
NK2-receptor Affinity (pK1) (NK2-receptor): 5.0-7.7 pK1
Ki (Murine NK3 receptor [7]): 2.3 ± 0.3 nM
EC50 (Murine NK3 receptor [8]): 0.09 ± 0.02 nM

RSRTRQFYGLM [Hemokinin-1]
NK-3 receptor Affinity (pK1) (NK-3 receptor [1]): 8.6-9.3 pK1
NK2-receptor Affinity (pK1) (NK2-receptor): 6.3 pK1
NK-1 receptor Affinity (pK1) (NK-1 receptor): 9.8-11.7 pK1

Substance P: agonist of multiple neurokinin receptors, CAS registry No. 33507-63-0
Effect on ventricular action potential (AP) duration [2]: does not prolong the AP
Effect on ventricular action potential (AP) duration ([2]; listed as substance P): absence of effect
Effect on atrial action potential (AP) duration (rabbit atrial myocytes): significantly prolongs the AP duration
Ki (Murine NK3 receptor [7]): 4920 ± 2250 nM
EC50 (Murine NK3 receptor [8]): 5.4 ± 2.4 nM

[Sar9, Met (O2)11]-Substance P
Effect on atrial action potential (AP) duration (rabbit atrial myocytes): absence of effect; also recorded: does not affect AP duration
